In the Deep4Chem optical property database:

Assay: photoluminescence quantum yield (fraction); solvent given as SMILES

**Q.** With `COC(=O)C(Cc1ccc2oc(-c3ccc(N(C)c4ccccc4)cc3)nc2c1)NC(=O)OC(C)(C)C` (stereo not drawn) as the compound, how does the photoluminescence quantum yield (in C1CCCCC1) read?
**A.** The photoluminescence quantum yield was 0.998.

**Q.** What about the photoluminescence quantum yield (in C1CCOC1) of the same compound?
**A.** The photoluminescence quantum yield was 0.27.

**Q.** And the photoluminescence quantum yield (in C1COCCO1)?
**A.** The photoluminescence quantum yield was 0.73.

**Q.** What about the photoluminescence quantum yield (in CC1CCCO1) of the same compound?
**A.** The photoluminescence quantum yield was 0.52.

**Q.** And the photoluminescence quantum yield (in CC1COC(=O)O1)?
**A.** Its photoluminescence quantum yield is 0.11.

**Q.** And the photoluminescence quantum yield (in CC#N)?
**A.** Its photoluminescence quantum yield is 0.11.

**Q.** What about the photoluminescence quantum yield (in CC(C)=O) of the same compound?
**A.** The photoluminescence quantum yield was 0.19.

**Q.** What about the photoluminescence quantum yield (in CC(C)CC(C)(C)C) of the same compound?
**A.** Its photoluminescence quantum yield is 1.

**Q.** What about the photoluminescence quantum yield (in CC(C)CO) of the same compound?
**A.** Its photoluminescence quantum yield is 0.2.

**Q.** And the photoluminescence quantum yield (in CC(C)O)?
**A.** The photoluminescence quantum yield was 0.19.

**Q.** What about the photoluminescence quantum yield (in CC(O)CO) of the same compound?
**A.** Its photoluminescence quantum yield is 0.11.

**Q.** And the photoluminescence quantum yield (in CCC(C)CC)?
**A.** The photoluminescence quantum yield was 0.97.

**Q.** And the photoluminescence quantum yield (in CCCCC)?
**A.** The photoluminescence quantum yield was 1.

**Q.** What about the photoluminescence quantum yield (in CCCCCC) of the same compound?
**A.** The photoluminescence quantum yield was 1.

**Q.** And the photoluminescence quantum yield (in CCCCCCCCC)?
**A.** The photoluminescence quantum yield was 0.95.

**Q.** What about the photoluminescence quantum yield (in CCCCCCCCCC) of the same compound?
**A.** The photoluminescence quantum yield was 1.

**Q.** And the photoluminescence quantum yield (in CCCCCCCO)?
**A.** Its photoluminescence quantum yield is 0.21.

**Q.** What about the photoluminescence quantum yield (in CCCCCCO) of the same compound?
**A.** The photoluminescence quantum yield was 0.22.

**Q.** What about the photoluminescence quantum yield (in CCCCCO) of the same compound?
**A.** Its photoluminescence quantum yield is 0.28.

**Q.** And the photoluminescence quantum yield (in CCCCO)?
**A.** Its photoluminescence quantum yield is 0.18.

**Q.** And the photoluminescence quantum yield (in CCO)?
**A.** Its photoluminescence quantum yield is 0.07.

**Q.** And the photoluminescence quantum yield (in CCOC(C)=O)?
**A.** Its photoluminescence quantum yield is 0.39.

**Q.** What about the photoluminescence quantum yield (in CCOCC) of the same compound?
**A.** Its photoluminescence quantum yield is 0.6.

**Q.** And the photoluminescence quantum yield (in CN(C)C=O)?
**A.** The photoluminescence quantum yield was 0.16.

**Q.** What about the photoluminescence quantum yield (in CO) of the same compound?
**A.** The photoluminescence quantum yield was 0.03.

**Q.** And the photoluminescence quantum yield (in COCCOC)?
**A.** Its photoluminescence quantum yield is 0.07.

**Q.** And the photoluminescence quantum yield (in CS(C)=O)?
**A.** Its photoluminescence quantum yield is 0.15.

**Q.** What about the photoluminescence quantum yield (in Cc1ccccc1) of the same compound?
**A.** The photoluminescence quantum yield was 0.78.

**Q.** And the photoluminescence quantum yield (in Cc1ccccc1C)?
**A.** Its photoluminescence quantum yield is 0.84.

**Q.** What about the photoluminescence quantum yield (in ClC(Cl)Cl) of the same compound?
**A.** The photoluminescence quantum yield was 0.58.

**Q.** And the photoluminescence quantum yield (in ClCCl)?
**A.** Its photoluminescence quantum yield is 0.45.

**Q.** And the photoluminescence quantum yield (in NC=O)?
**A.** Its photoluminescence quantum yield is 0.02.

**Q.** What about the photoluminescence quantum yield (in OC1CCCCC1) of the same compound?
**A.** The photoluminescence quantum yield was 0.18.

**Q.** What about the photoluminescence quantum yield (in OCCO) of the same compound?
**A.** The photoluminescence quantum yield was 0.03.

**Q.** And the photoluminescence quantum yield (in c1ccccc1)?
**A.** Its photoluminescence quantum yield is 0.76.

**Q.** For `COc1cc(/C=C2/SC(=O)NC2=O)ccc1O`, which photoluminescence quantum yield (in C1CCCCC1) is on record?
**A.** Its photoluminescence quantum yield is 0.018.

**Q.** And the photoluminescence quantum yield (in C1COCCO1)?
**A.** The photoluminescence quantum yield was 0.017.

**Q.** What about the photoluminescence quantum yield (in CC#N) of the same compound?
**A.** The photoluminescence quantum yield was 0.01.

**Q.** And the photoluminescence quantum yield (in CN(C)C=O)?
**A.** Its photoluminescence quantum yield is 0.023.

**Q.** And the photoluminescence quantum yield (in CO)?
**A.** The photoluminescence quantum yield was 0.012.

**Q.** And the photoluminescence quantum yield (in O)?
**A.** Its photoluminescence quantum yield is 0.011.

**Q.** What about the photoluminescence quantum yield (in OCC(O)CO) of the same compound?
**A.** Its photoluminescence quantum yield is 0.35.

**Q.** And the photoluminescence quantum yield (in OCCO)?
**A.** Its photoluminescence quantum yield is 0.104.

**Q.** What does the source list for `Cn1cc(/C=C/C(=O)c2ccccc2)c2ccccc21`?
**A.** photoluminescence quantum yield (in C1CCOC1): 0.1; photoluminescence quantum yield (in C1COCCO1): 0.114; photoluminescence quantum yield (in CC#N): 0.343; photoluminescence quantum yield (in CC(C)=O): 0.329; photoluminescence quantum yield (in CC(C)O): 0.231; photoluminescence quantum yield (in CCC(=O)CC): 0.209; photoluminescence quantum yield (in CCCC#N): 0.217; photoluminescence quantum yield (in CCCC(C)=O): 0.22; photoluminescence quantum yield (in CCCCCCCCO): 0.345; photoluminescence quantum yield (in CCCCCCO): 0.428; photoluminescence quantum yield (in CCCCO): 0.333; photoluminescence quantum yield (in CCCO): 0.5; photoluminescence quantum yield (in CCO): 0.173; photoluminescence quantum yield (in CN(C)C=O): 0.245; photoluminescence quantum yield (in CO): 0.162; photoluminescence quantum yield (in CS(C)=O): 0.62; photoluminescence quantum yield (in ClC(Cl)Cl): 0.14; photoluminescence quantum yield (in ClCCl): 0.394; photoluminescence quantum yield (in NC=O): 0.277; photoluminescence quantum yield (in O): 0.12; photoluminescence quantum yield (in OC1CCCCC1): 0.778

**Q.** What does the source list for `CCNc1ccc2c(C(F)(F)F)cc(=O)oc2c1`?
**A.** photoluminescence quantum yield (in C1CCC2CCCCC2C1): 0.72; photoluminescence quantum yield (in C1CCCCC1): 0.74; photoluminescence quantum yield (in CC1CCCCC1): 0.77; photoluminescence quantum yield (in CC#N): 0.56; photoluminescence quantum yield (in CC(C)=O): 0.53; photoluminescence quantum yield (in CC(C)O): 0.54; photoluminescence quantum yield (in CCC(C)CC): 0.75; photoluminescence quantum yield (in CCCC(C)C): 0.77; photoluminescence quantum yield (in CCCCCC): 0.76; photoluminescence quantum yield (in CCCCCCO): 0.54; photoluminescence quantum yield (in CCCCO): 0.53; photoluminescence quantum yield (in CCO): 0.47; photoluminescence quantum yield (in CCOC(C)=O): 0.61; photoluminescence quantum yield (in CO): 0.46

**Q.** For `CCCN(c1ccccc1)c1ccc2c(c1)C(CC)(CC)c1cc(/C=C/c3ccc(/C=C(\C#N)C(=O)O)s3)ccc1-2`, which photoluminescence quantum yield (in C1CCOC1) is on record?
**A.** The photoluminescence quantum yield was 0.355.

**Q.** And the photoluminescence quantum yield (in C1COCCO1)?
**A.** The photoluminescence quantum yield was 0.862.

**Q.** And the photoluminescence quantum yield (in CC#N)?
**A.** Its photoluminescence quantum yield is 0.229.

**Q.** And the photoluminescence quantum yield (in CC(C)=O)?
**A.** The photoluminescence quantum yield was 0.486.

**Q.** What about the photoluminescence quantum yield (in CCOC(C)=O) of the same compound?
**A.** Its photoluminescence quantum yield is 0.584.

**Q.** And the photoluminescence quantum yield (in CN(C)C=O)?
**A.** Its photoluminescence quantum yield is 0.894.

**Q.** What about the photoluminescence quantum yield (in CS(C)=O) of the same compound?
**A.** The photoluminescence quantum yield was 0.611.

**Q.** What about the photoluminescence quantum yield (in ClCCl) of the same compound?
**A.** The photoluminescence quantum yield was 0.624.

**Q.** Which photoluminescence quantum yield (in Cc1ccccc1) does the source give for `Oc1ccccc1-c1nc2c3ccccc3c3ccccc3c2n1-c1ccccc1` here?
**A.** Its photoluminescence quantum yield is 0.001.

**Q.** For `COc1ccc(C#Cc2ccc3nc4ccc(C#Cc5ccc(OC)cc5)cn4c(=O)c3c2)cc1`, which photoluminescence quantum yield (in ClCCl) is on record?
**A.** Its photoluminescence quantum yield is 0.52.

**Q.** Which photoluminescence quantum yield (in C1CCOC1) does the source give for `COC(=O)c1ccc(/C=C/C(F)(F)F)c(N)c1` here?
**A.** Its photoluminescence quantum yield is 0.74.

**Q.** Which results are given for `COc1nc(Cl)nc(Nc2ccc3c4cccc5cccc(c6cccc2c63)c54)n1`?
**A.** photoluminescence quantum yield (in C1COCCO1): 0.4; photoluminescence quantum yield (in CC#N): 0.32; photoluminescence quantum yield (in CCCCOCCCC): 0.37; photoluminescence quantum yield (in CCOC(C)=O): 0.33
